Read-outs that look alike come from different tables or passages of the source.
What was measured:
[1] = single agent panobinostat; cited from earlier work
[2] = patients with relapsed multiple myeloma; cited from earlier work
[3] = single agent vorinostat; cited from earlier work
AML = assay: Clinical response; type: in vivo, human; settings: of 13 patients enrolled, AR-42 followed by decitabine; responses all in DL3
miR-29b [4] = settings: cited from earlier work
miR-29b [5] = tested on: miR-29b
cancer cells = settings: cited from earlier work
AML cell lines = settings: cited from earlier work
[6] = Toxicity and dose limiting toxicity; type: in vivo, human; settings: for dose limiting toxicities (DLTs): cycle 1
[7] = Plasma pharmacokinetics of AR-42 in AML patients; type: in vivo, human; settings: for Tmax: median (SD)
[8] = AR-42 followed by decitabine, all dose levels, 13 AML patients
[9] = 20 mg (day 1, 3, 5), Day 1, cycle 1, plasma, geometric mean (SD)
[10] = 20 mg (day 1, 3, 5), Day 5, cycle 1, plasma, geometric mean (SD)
[11] = 40 mg (day 1, 3, 4, 5), Day 1, cycle 1, plasma, geometric mean (SD)
[12] = 40 mg (day 1, 3, 4, 5), Day 5, cycle 1, plasma, geometric mean (SD)
[13] = 40 mg (day 1, 3, 5), Day 1, cycle 1, plasma, geometric mean (SD)
[14] = 40 mg (day 1, 3, 5), Day 5, cycle 1, plasma, geometric mean (SD)

Q: Which “patients who experienced fatigue” value [1] does the source give for `Cc1[nH]c2ccccc2c1CCNCc1ccc(/C=C/C(=O)NO)cc1` [panobinostat] here?
A: 47.4%

Q: Which cardiac events [2] does the source give for `Cn1cc(CNCC2CCN(c3ncc(C(=O)NO)cn3)CC2)c2ccccc21` [quisinostat] here?
A: grade 3 and 4 cardiac events

Q: Which “patients who experienced fatigue” value [3] does the source give for `O=C(CCCCCCC(=O)Nc1ccccc1)NO` [vorinostat] here?
A: 52%

Q: For AR-42, which “number of patients who achieved a CRi” value (AML) is on record?
A: 2

Q: What about the miR-29b expression (miR-29b [4]; AML cells, 1 μM AR-42, after 24 h) of the same compound?
A: miR-29b induction

Q: What about the miR-29b expression (miR-29b [4]; Kasumi-1 AML cells, in vitro) of the same compound?
A: upregulated

Q: And the miR-29b transcription (miR-29b [4]; in vitro)?
A: increase

Q: What about the “increase of at least 100% in miR-29b expression” value (miR-29b [5]; DL1: AR-42 20 mg days 1, 3, 5, day 5 of cycle 1 over baseline) of the same compound?
A: not observed

Q: What about the “increase in miR-29b expression of at least 100%” value (miR-29b [5]; DL2: AR-42 40 mg days 1, 3, 5, day 5 of cycle 1 over baseline) of the same compound?
A: not observed

Q: What about the “increase in miR-29b expression” value (miR-29b [5]; DL3: AR-42 40 mg days 1, 3, 4, 5, day 5 of cycle 1 over baseline) of the same compound?
A: not observed

Q: What about the “doubling in either the mature or primary miR at day 5 prior to decitabine administration” value (miR-29b [5]; all dose levels, current schedule) of the same compound?
A: did not observe a doubling

Q: What about the “correlation between miR-29b ΔΔCT values and Cmax” value (miR-29b [5]; human, in vivo) of the same compound?
A: weak correlation

Q: What about the IC50 (cancer cells) of the same compound?
A: submicromolar

Q: And the apoptosis (AML cell lines; AML cell lines)?
A: dose dependent apoptosis

Q: And the “effect on cell cycle” value (AML cell lines; AML cell lines)?
A: cell cycle arrest at both S and G2/M phases

Q: And the anti-leukemic activity (AML cell lines; sequential administration of AR-42 followed by decitabine, compared to either drug alone)?
A: stronger anti-leukemic activity

Q: And the “patients with worsening hypertension” value ([6]; AR-42 followed by decitabine, 13 AML patients)?
A: 4

Q: And the “Number of Patients with grade ≥ 3 in cycles 1 and 2: Alanine aminotransferase increased” value [6, 8]?
A: 1

Q: What about the “Number of Patients with grade ≥ 3 in cycles 1 and 2: Alkalosis” value [6, 8] of the same compound?
A: 1

Q: What about the “Number of Patients with grade ≥ 3 in cycles 1 and 2: Aspartate aminotransferase increased” value [6, 8] of the same compound?
A: 2

Q: What about the “Number of Patients with grade ≥ 3 in cycles 1 and 2: Blood bilirubin increased” value [6, 8] of the same compound?
A: 1

Q: And the “Number of Patients with grade ≥ 3 in cycles 1 and 2: Cardiac troponin increased” value [6, 8]?
A: 1

Q: What about the “Number of Patients with grade ≥ 3 in cycles 1 and 2: Catheter-related infection” value [6, 8] of the same compound?
A: 2

Q: And the “Number of Patients with grade ≥ 3 in cycles 1 and 2: Fall” value [6, 8]?
A: 1

Q: And the “Number of Patients with grade ≥ 3 in cycles 1 and 2: Febrile neutropenia” value [6, 8]?
A: 9

Q: And the “Number of Patients with grade ≥ 3 in cycles 1 and 2: Heart failure” value [6, 8]?
A: 1

Q: And the “Number of Patients with grade ≥ 3 in cycles 1 and 2: Hyperglycemia” value [6, 8]?
A: 3

Q: And the “Number of Patients with grade ≥ 3 in cycles 1 and 2: Hypertension” value [6, 8]?
A: 4

Q: What about the “Number of Patients with grade ≥ 3 in cycles 1 and 2: Hyperuricemia” value [6, 8] of the same compound?
A: 1

Q: What about the “Number of Patients with grade ≥ 3 in cycles 1 and 2: Hypoalbuminemia” value [6, 8] of the same compound?
A: 1

Q: What about the “Number of Patients with grade ≥ 3 in cycles 1 and 2: Hypokalemia” value [6, 8] of the same compound?
A: 3

Q: And the “Number of Patients with grade ≥ 3 in cycles 1 and 2: Hyponatremia” value [6, 8]?
A: 5

Q: And the “Number of Patients with grade ≥ 3 in cycles 1 and 2: Hypophosphatemia” value [6, 8]?
A: 2

Q: What about the “Number of Patients with grade ≥ 3 in cycles 1 and 2: Hypotension” value [6, 8] of the same compound?
A: 2

Q: What about the “Number of Patients with grade ≥ 3 in cycles 1 and 2: Hypoxia” value [6, 8] of the same compound?
A: 6

Q: What about the “Number of Patients with grade ≥ 3 in cycles 1 and 2: Lung infection” value [6, 8] of the same compound?
A: 5

Q: What about the “Number of Patients with grade ≥ 3 in cycles 1 and 2: Rash maculo-papular” value [6, 8] of the same compound?
A: 1

Q: And the “Number of Patients with grade ≥ 3 in cycles 1 and 2: Respiratory failure” value [6, 8]?
A: 1

Q: And the “Number of Patients with grade ≥ 3 in cycles 1 and 2: Sepsis” value [6, 8]?
A: 3

Q: What about the “Number of Patients with grade ≥ 3 in cycles 1 and 2: Sinus tachycardia” value [6, 8] of the same compound?
A: 1

Q: What about the “Number of Patients with grade ≥ 3 in cycles 1 and 2: Syncope” value [6, 8] of the same compound?
A: 1

Q: And the “dose limiting toxicities (DLTs)” value ([6]; DL1: AR-42 20 mg daily days 1, 3, 5, then decitabine, 3 patients)?
A: no DLTs

Q: And the “dose limiting toxicities (DLTs)” value ([6]; DL2: AR-42 40 mg daily days 1, 3, 5, then decitabine, 3 patients)?
A: no DLTs

Q: And the “dose limiting toxicities (DLTs)” value ([6]; DL3: AR-42 40 mg daily days 1, 3, 4, 5, then decitabine)?
A: One DLT of polymicrobial sepsis and multi-organ failure

Q: What about the “patients who also experienced a grade 3 or 4 infection” value ([6]; of the six patients with neutropenia in cycle 1) of the same compound?
A: 4

Q: What about the cardiac toxicities ([6]; patients treated with AR-42) of the same compound?
A: minimal cardiac toxicities

Q: And the “AUC0–4” value [7, 9]?
A: 1.59 (2.13) μM h

Q: What about the “AUC0–∞” value [7, 9] of the same compound?
A: 1.77 (2.34) μM h

Q: What about the “Cl/F (apparent oral clearance)” value [7, 9] of the same compound?
A: 36.11 (114.88) L/h

Q: And the T1/2 [7, 9]?
A: 7.36 (0.42) h

Q: And the “Vz/F (apparent volume of distribution)” value [7, 9]?
A: 381.33 (1238.57) L

Q: What about the Tmax ([7]; 20 mg (day 1, 3, 5), Day 1, cycle 1, plasma) of the same compound?
A: 2.00 (1.32) h

Q: What about the “AUC0–4” value [7, 10] of the same compound?
A: 4.19 (0.54) μM h

Q: What about the “AUC0–∞” value [7, 10] of the same compound?
A: 4.63 (0.71) μM h

Q: And the “Cl/F (apparent oral clearance)” value [7, 10]?
A: 13.84 (2.18) L/h

Q: And the Cmax [7, 10]?
A: 350 nM

Q: What about the T1/2 [7, 10] of the same compound?
A: 6.91 (1.11) h

Q: And the “Vz/F (apparent volume of distribution)” value [7, 10]?
A: 137.94 (14.39) L

Q: And the Tmax ([7]; 20 mg (day 1, 3, 5), Day 5, cycle 1, plasma)?
A: 2.00 (1.32) h

Q: What about the “AUC0–4” value [7, 11] of the same compound?
A: 11.33 (3.54) μM h

Q: And the “AUC0–∞” value [7, 11]?
A: 12.22 (4.24) μM h

Q: What about the “Cl/F (apparent oral clearance)” value [7, 11] of the same compound?
A: 10.48 (2.98) L/h

Q: And the Cmax [7, 11]?
A: 1010 nM

Q: What about the T1/2 [7, 11] of the same compound?
A: 7.63 (1.14) h

Q: What about the “Vz/F (apparent volume of distribution)” value [7, 11] of the same compound?
A: 120.53 (35.87) L

Q: And the Tmax ([7]; 40 mg (day 1, 3, 4, 5), Day 1, cycle 1, plasma)?
A: 2.00 (2.36) h

Q: And the “AUC0–4” value [7, 12]?
A: 11.13 (3.36) μM h

Q: And the “AUC0–∞” value [7, 12]?
A: 14.42 (7.91) μM h

Q: And the “Cl/F (apparent oral clearance)” value [7, 12]?
A: 8.88 (3.23) L/h

Q: What about the Cmax [7, 12] of the same compound?
A: 960 nM

Q: And the T1/2 [7, 12]?
A: 9.98 (6.79) h

Q: And the “Vz/F (apparent volume of distribution)” value [7, 12]?
A: 127.81 (54.36) L

Q: What about the Tmax ([7]; 40 mg (day 1, 3, 4, 5), Day 5, cycle 1, plasma) of the same compound?
A: 4.00 (2.60) h

Q: And the “AUC0–4” value [7, 13]?
A: 7.20 (1.06) μM h

Q: And the “AUC0–∞” value [7, 13]?
A: 7.90 (1.10) μM h

Q: What about the “Cl/F (apparent oral clearance)” value [7, 13] of the same compound?
A: 16.22 (2.15) L/h

Q: And the Cmax [7, 13]?
A: 710 nM

Q: What about the T1/2 [7, 13] of the same compound?
A: 6.63 (0.29) h

Q: What about the “Vz/F (apparent volume of distribution)” value [7, 13] of the same compound?
A: 155.67 (27.03) L

Q: What about the Tmax ([7]; 40 mg (day 1, 3, 5), Day 1, cycle 1, plasma) of the same compound?
A: 2.00 (1.15) h

Q: What about the “AUC0–4” value [7, 14] of the same compound?
A: 6.94 (0.64) μM h

Q: And the “AUC0–∞” value [7, 14]?
A: 7.71 (1.10) μM h

Q: What about the “Cl/F (apparent oral clearance)” value [7, 14] of the same compound?
A: 16.61 (2.22) L/h

Q: What about the Cmax [7, 14] of the same compound?
A: 860 nM

Q: And the T1/2 [7, 14]?
A: 6.93 (1.26) h

Q: What about the “Vz/F (apparent volume of distribution)” value [7, 14] of the same compound?
A: 166.11 (9.73) L

Q: What about the Tmax ([7]; 40 mg (day 1, 3, 5), Day 5, cycle 1, plasma) of the same compound?
A: 1.50 (0.29) h

Q: And the Cmax ([7]; read-out: Cmax values, DL1, days 1 and 5)?
A: 150 to 350 nM

Q: What about the Cmax ([7]; read-out: Cmax values, DL2, days 1 and 5) of the same compound?
A: 710 to 860 nM

Q: What about the Cmax ([7]; read-out: Cmax values, DL3, days 1 and 5) of the same compound?
A: 960 to 1010 nM

Source: publication PMC7375689 (Leukemia & lymphoma, 2020)
